Measurements: ChEMBL document CHEMBL4257522, “Synthesis and preliminary anti-inflammatory and anti-bacterial evaluation of some diflunisal aza-analogs” (Medchemcomm, 2018)
Calls of active or inactive are those of the source. The calls are words filed in the database; no cut-off is given here.

Columns and labels:
Streptococcus pyogenes [1] = assay: Potentiation of tetracycline-induced antibacterial activity against Streptococcus pyogenes ATCC 14289 assessed as minimum modulatory concentration up to 32 uM measured after 16 hrs in presence of MIC/4 tetracycline; type: functional; details: ATCC 14289, 16 h, read-out: MEC
Macrophage cell line [2] = assay: Induction of TNFalpha production in human PBMC-differentiated macrophages after 24 hrs by ELISA; type: cell-based
Enterococcus faecium [3] = assay: Potentiation of ciprofloxacin-induced antibacterial activity against Enterococcus faecium ATCC 700221 assessed as minimum modulatory concentration up to 32 uM measured after 16 hrs in presence of MIC/4 ciprofloxacin; type: functional; details: ATCC 700221, 16 h, read-out: MEC
Enterococcus faecium [4] = assay: Toxicity in Enterococcus faecium ATCC 700221 up to 32 uM measured after 16 hrs; type: organism-based; details: in vitro
Pseudomonas aeruginosa [5] = assay: Toxicity in Pseudomonas aeruginosa ATCC BAA-2108 up to 32 uM measured after 16 hrs; type: organism-based; details: in vitro
Escherichia coli [6] = assay: Potentiation of tetracycline-induced antibacterial activity against Escherichia coli ATCC 43894 assessed as minimum modulatory concentration up to 32 uM measured after 16 hrs in presence of MIC/4 tetracycline; type: functional; details: ATCC 43894, 16 h, read-out: MEC
Streptococcus pyogenes [7] = assay: Potentiation of ciprofloxacin-induced antibacterial activity against Streptococcus pyogenes ATCC 14289 assessed as minimum modulatory concentration up to 32 uM measured after 16 hrs in presence of MIC/4 ciprofloxacin; type: functional; details: ATCC 14289, 16 h, read-out: MEC
Klebsiella pneumoniae [8] = assay: Potentiation of tetracycline-induced antibacterial activity against Klebsiella pneumoniae ATCC 13883 assessed as minimum modulatory concentration up to 32 uM measured after 16 hrs in presence of MIC/4 tetracycline; type: functional; details: ATCC 13883, 16 h, read-out: MEC
Macrophage cell line [9] = assay: Induction of prostaglandin production in human PBMC-differentiated macrophages after 24 hrs by ELISA; type: cell-based
Enterococcus faecium [10] = assay: Potentiation of geneticin-induced antibacterial activity against Enterococcus faecium ATCC 700221 assessed as minimum modulatory concentration up to 32 uM measured after 16 hrs in presence of MIC/4 geneticin; type: functional; details: ATCC 700221, 16 h, read-out: MEC
Klebsiella pneumoniae [11] = assay: Toxicity in Klebsiella pneumoniae ATCC 13883 up to 32 uM measured after 16 hrs; type: organism-based
Escherichia coli [12] = assay: Potentiation of erythromycin-induced antibacterial activity against Escherichia coli ATCC 43894 assessed as minimum modulatory concentration up to 32 uM measured after 16 hrs in presence of MIC/4 erythromycin; type: functional; details: ATCC 43894, 16 h, read-out: MEC
Pseudomonas aeruginosa [13] = assay: Potentiation of methicillin-induced antibacterial activity against Pseudomonas aeruginosa ATCC BAA-2108 assessed as minimum modulatory concentration up to 32 uM measured after 16 hrs in presence of MIC/4 methicillin; type: functional; details: ATCC BAA-2108, 16 h, read-out: MEC
Staphylococcus aureus [14] = assay: Potentiation of methicillin-induced antibacterial activity against Staphylococcus aureus ATCC 33592 assessed as minimum modulatory concentration up to 32 uM measured after 16 hrs in presence of MIC/4 methicillin; type: functional; details: ATCC 33592, 16 h, read-out: MEC
Streptococcus pyogenes [15] = assay: Potentiation of methicillin-induced antibacterial activity against Streptococcus pyogenes ATCC 14289 assessed as minimum modulatory concentration up to 32 uM measured after 16 hrs in presence of MIC/4 methicillin; type: functional; details: ATCC 14289, 16 h, read-out: MEC
Macrophage cell line [16] = assay: Induction of IL-1beta production in human PBMC-differentiated macrophages after 24 hrs by ELISA; type: cell-based
Streptococcus pyogenes [17] = assay: Potentiation of erythromycin-induced antibacterial activity against Streptococcus pyogenes ATCC 14289 assessed as minimum modulatory concentration up to 32 uM measured after 16 hrs in presence of MIC/4 erythromycin; type: functional; details: ATCC 14289, 16 h, read-out: MEC
Escherichia coli [18] = assay: Toxicity in Escherichia coli ATCC 43894 up to 32 uM measured after 16 hrs; type: organism-based
Klebsiella pneumoniae [19] = assay: Potentiation of methicillin-induced antibacterial activity against Klebsiella pneumoniae ATCC 13883 assessed as minimum modulatory concentration up to 32 uM measured after 16 hrs in presence of MIC/4 methicillin; type: functional; details: ATCC 13883, 16 h, read-out: MEC
Pseudomonas aeruginosa [20] = assay: Potentiation of ciprofloxacin-induced antibacterial activity against Pseudomonas aeruginosa ATCC BAA-2108 assessed as minimum modulatory concentration up to 32 uM measured after 16 hrs in presence of MIC/4 ciprofloxacin; type: functional; details: ATCC BAA-2108, 16 h, read-out: MEC
Staphylococcus aureus [21] = assay: Potentiation of erythromycin-induced antibacterial activity against Staphylococcus aureus ATCC 33592 assessed as minimum modulatory concentration up to 32 uM measured after 16 hrs in presence of MIC/4 erythromycin; type: functional; details: ATCC 33592, 16 h, read-out: MEC
Macrophage cell line [22] = assay: Antiinflammatory activity in human PBMC-differentiated macrophages assessed as inhibition of LPS-induced prostaglandin production at 0.01 to 10 uM measured after 24 hrs by ELISA; type: functional, cell-based
Klebsiella pneumoniae [23] = assay: Potentiation of geneticin-induced antibacterial activity against Klebsiella pneumoniae ATCC 13883 assessed as minimum modulatory concentration up to 32 uM measured after 16 hrs in presence of MIC/4 geneticin; type: functional; details: ATCC 13883, 16 h, read-out: MEC
Escherichia coli [24] = assay: Potentiation of geneticin-induced antibacterial activity against Escherichia coli ATCC 43894 assessed as minimum modulatory concentration up to 32 uM measured after 16 hrs in presence of MIC/4 geneticin; type: functional; details: ATCC 43894, 16 h, read-out: MEC
Enterococcus faecium [25] = assay: Potentiation of methicillin-induced antibacterial activity against Enterococcus faecium ATCC 700221 assessed as minimum modulatory concentration up to 32 uM measured after 16 hrs in presence of MIC/4 methicillin; type: functional; details: ATCC 700221, 16 h, read-out: MEC
Macrophage cell line [26] = assay: Induction of IL-8 production in human PBMC-differentiated macrophages after 24 hrs by ELISA; type: cell-based
Klebsiella pneumoniae [27] = assay: Potentiation of erythromycin-induced antibacterial activity against Klebsiella pneumoniae ATCC 13883 assessed as minimum modulatory concentration up to 32 uM measured after 16 hrs in presence of MIC/4 erythromycin; type: functional; details: ATCC 13883, 16 h, read-out: MEC
Escherichia coli [28] = assay: Potentiation of ciprofloxacin-induced antibacterial activity against Escherichia coli ATCC 43894 assessed as minimum modulatory concentration up to 32 uM measured after 16 hrs in presence of MIC/4 ciprofloxacin; type: functional; details: ATCC 43894, 16 h, read-out: MEC
Escherichia coli [29] = assay: Potentiation of methicillin-induced antibacterial activity against Escherichia coli ATCC 43894 assessed as minimum modulatory concentration up to 32 uM measured after 16 hrs in presence of MIC/4 methicillin; type: functional; details: ATCC 43894, 16 h, read-out: MEC
Pseudomonas aeruginosa [30] = assay: Potentiation of geneticin-induced antibacterial activity against Pseudomonas aeruginosa ATCC BAA-2108 assessed as minimum modulatory concentration up to 32 uM measured after 16 hrs in presence of MIC/4 geneticin; type: functional; details: ATCC BAA-2108, 16 h, read-out: MEC
Staphylococcus aureus [31] = assay: Potentiation of geneticin-induced antibacterial activity against Staphylococcus aureus ATCC 33592 assessed as minimum modulatory concentration up to 32 uM measured after 16 hrs in presence of MIC/4 geneticin; type: functional; details: ATCC 33592, 16 h, read-out: MEC
Pseudomonas aeruginosa [32] = assay: Potentiation of erythromycin-induced antibacterial activity against Pseudomonas aeruginosa ATCC BAA-2108 assessed as minimum modulatory concentration up to 32 uM measured after 16 hrs in presence of MIC/4 erythromycin; type: functional; details: ATCC BAA-2108, 16 h, read-out: MEC
Klebsiella pneumoniae [33] = assay: Potentiation of ciprofloxacin-induced antibacterial activity against Klebsiella pneumoniae ATCC 13883 assessed as minimum modulatory concentration up to 32 uM measured after 16 hrs in presence of MIC/4 ciprofloxacin; type: functional; details: ATCC 13883, 16 h, read-out: MEC

| Compound | minimal effective concentration (Streptococcus pyogenes [1]) | Activity (Macrophage cell line [2]) | minimal effective concentration (Enterococcus faecium [3]) | Activity (Enterococcus faecium [4]) | Activity (Pseudomonas aeruginosa [5]) | minimal effective concentration (Escherichia coli [6]) | minimal effective concentration (Streptococcus pyogenes [7]) | minimal effective concentration (Klebsiella pneumoniae [8]) | Activity (Macrophage cell line [9]) | minimal effective concentration (Enterococcus faecium [10]) | Activity (Klebsiella pneumoniae [11]) | minimal effective concentration (Escherichia coli [12]) | minimal effective concentration (Pseudomonas aeruginosa [13]) | minimal effective concentration (Staphylococcus aureus [14]) | minimal effective concentration (Streptococcus pyogenes [15]) | Activity (Macrophage cell line [16]) | minimal effective concentration (Streptococcus pyogenes [17]) | Activity (Escherichia coli [18]) | minimal effective concentration (Klebsiella pneumoniae [19]) | minimal effective concentration (Pseudomonas aeruginosa [20]) | further results |
| --- | --- | --- | --- | --- | --- | --- | --- | --- | --- | --- | --- | --- | --- | --- | --- | --- | --- | --- | --- | --- | --- |
| Cc1nc(-c2ccccc2)cc(C(=O)O)c1O | > 32 µM | Non-Toxic | > 32 µM | Non-Toxic | Non-Toxic | > 32 µM | > 32 µM | > 32 µM | Non-Toxic | > 32 µM | Non-Toxic | > 32 µM | > 32 µM | 16 µM | > 32 µM | Non-Toxic | > 32 µM | Non-Toxic | > 32 µM | > 32 µM | minimal effective concentration (Staphylococcus aureus [21]): > 32 µM; inhibition (Macrophage cell line [22]): inactive; minimal effective concentration (Klebsiella pneumoniae [23]): > 32 µM; minimal effective concentration (Escherichia coli [24]): > 32 µM; minimal effective concentration (Enterococcus faecium [25]): > 32 µM; Activity (Macrophage cell line [26]): Non-Toxic; minimal effective concentration (Klebsiella pneumoniae [27]): > 32 µM; minimal effective concentration (Escherichia coli [28]): > 32 µM; minimal effective concentration (Escherichia coli [29]): > 32 µM; minimal effective concentration (Pseudomonas aeruginosa [30]): > 32 µM; minimal effective concentration (Staphylococcus aureus [31]): 16 µM; minimal effective concentration (Pseudomonas aeruginosa [32]): > 32 µM; minimal effective concentration (Klebsiella pneumoniae [33]): > 32 µM |
| O=C(O)c1cnc(-c2ccccc2)c(O)c1 | 4 µM | Non-Toxic | > 32 µM | Non-Toxic | Non-Toxic | > 32 µM | > 32 µM | > 32 µM | Non-Toxic | 8 µM | Non-Toxic | > 32 µM | 16 µM | 0.5 µM | 1 µM | Non-Toxic | 4 µM | Non-Toxic | > 32 µM | 4 µM | minimal effective concentration (Staphylococcus aureus [21]): 2 µM; inhibition (Macrophage cell line [22]): inactive; minimal effective concentration (Klebsiella pneumoniae [23]): > 32 µM; minimal effective concentration (Escherichia coli [24]): > 32 µM; minimal effective concentration (Enterococcus faecium [25]): 0.5 µM; Activity (Macrophage cell line [26]): Non-Toxic; minimal effective concentration (Klebsiella pneumoniae [27]): > 32 µM; minimal effective concentration (Escherichia coli [28]): > 32 µM; minimal effective concentration (Escherichia coli [29]): > 32 µM; minimal effective concentration (Pseudomonas aeruginosa [30]): > 32 µM; minimal effective concentration (Staphylococcus aureus [31]): 2 µM; minimal effective concentration (Pseudomonas aeruginosa [32]): 4 µM; minimal effective concentration (Klebsiella pneumoniae [33]): > 32 µM |
| COc1cccc(-c2cc(C(=O)[O-])c(O)c[n+]2C)c1 | > 32 µM | Non-Toxic | > 32 µM | Non-Toxic | Non-Toxic | > 32 µM | > 32 µM | > 32 µM | Non-Toxic | > 32 µM | Non-Toxic | > 32 µM | > 32 µM | > 32 µM | > 32 µM | Non-Toxic | > 32 µM | Non-Toxic | > 32 µM | > 32 µM | minimal effective concentration (Staphylococcus aureus [21]): > 32 µM; inhibition (Macrophage cell line [22]): inactive; minimal effective concentration (Klebsiella pneumoniae [23]): > 32 µM; minimal effective concentration (Escherichia coli [24]): > 32 µM; minimal effective concentration (Enterococcus faecium [25]): > 32 µM; Activity (Macrophage cell line [26]): Non-Toxic; minimal effective concentration (Klebsiella pneumoniae [27]): > 32 µM; minimal effective concentration (Escherichia coli [28]): > 32 µM; minimal effective concentration (Escherichia coli [29]): > 32 µM; minimal effective concentration (Pseudomonas aeruginosa [30]): > 32 µM; minimal effective concentration (Staphylococcus aureus [31]): > 32 µM; minimal effective concentration (Pseudomonas aeruginosa [32]): > 32 µM; minimal effective concentration (Klebsiella pneumoniae [33]): > 32 µM |
| O=C(O)c1ccnc(-c2ccccc2)c1O | 1 µM | Non-Toxic | > 32 µM | Non-Toxic | Non-Toxic | > 32 µM | > 32 µM | > 32 µM | Non-Toxic | 4 µM | Non-Toxic | > 32 µM | 8 µM | 0.25 µM | 0.5 µM | Non-Toxic | 2 µM | Non-Toxic | > 32 µM | 4 µM | minimal effective concentration (Staphylococcus aureus [21]): 0.25 µM; inhibition (Macrophage cell line [22]): inactive; minimal effective concentration (Klebsiella pneumoniae [23]): > 32 µM; minimal effective concentration (Escherichia coli [24]): > 32 µM; minimal effective concentration (Enterococcus faecium [25]): 1 µM; Activity (Macrophage cell line [26]): Non-Toxic; minimal effective concentration (Klebsiella pneumoniae [27]): > 32 µM; minimal effective concentration (Escherichia coli [28]): > 32 µM; minimal effective concentration (Escherichia coli [29]): > 32 µM; minimal effective concentration (Pseudomonas aeruginosa [30]): > 32 µM; minimal effective concentration (Staphylococcus aureus [31]): 0.5 µM; minimal effective concentration (Pseudomonas aeruginosa [32]): 4 µM; minimal effective concentration (Klebsiella pneumoniae [33]): > 32 µM |
